The values that follow come from patent US8007782B2, “Combination bacteriolytic therapy for the treatment of tumors” (priority 2003, dated 2011).

In data set [1] the test system is HCT116 human colorectal cancer cells. As to the kind of experiment: Tumorigenicity assay, HCT116 xenografts in nude mice. Format: in vivo. Conditions: for Effect with C. novyi-NT / Effect alone: nude mice; for Effect alone: agent alone. The source says: (§1) All animal protocols were designed in accordance with the Guide for the Care and Use of Laboratory Animals (NIH Publication 86-23) and were approved by the Johns Hopkins University Institutional Animal Care and Use Committee. Six to eight week old mice were implanted subcutaneously on one flank with 3 to 6 million cancer cells. Establishment of tumors of 150 to 500 mm3 took 8 to 21 days, depending on the cell type. C. novyi-NT spores (300×106) and anti-microtubule agents were generally administered by a single intravenous injection through the tail vein in a total volume of 300 to 500 ul phosphate-buffered saline (PBS). Quantitative assessment of tumor growth was performed by measuring subcutaneous tumor grafts (major and minor axis) using electronic calipers. Tumor volume was calculated using the equation: length×width2×0.5. Progression free survival was defined as the length of time following treatment before any increase in tumor volume was observed. Mice were considered “cured” if no tumor was evident three months after treatment. Animals were weighed at least twice a week and carefully observed for signs of toxicity every day for the first week following treatment and then twice a week thereafter. At least five mice were used for each treatment arm described in the Experimental Results.
The timing, route, and dose of agents are critical for the success of any experimental therapy. When two agents are combined, the number of variables that must be tested increases exponentially. To simplify interpretation of the comparisons between various anti-microtubule agents, pilot studies with representative drugs were performed.
Eighteen agents known to interact with microtubules were each tested in this manner in nude mice harboring xenografts of HCT116 human colorectal cancer cells. At least five mice harboring tumors of 150 to 500 mm3 in size were used for each experimental arm. Two classes of responses were noted. One type of response was characterized by a rapid hemorrhagic necrosis, observed only with agents that inhibited microtubule […] (FIG. 1A, B). The other type of response was characterized by a slow regression, observed with agents that stabilized microtubules (FIG. 2A, B).

The test system of data set [2] is HCT116, HuCC-T1, HT-29, SW480, B16 and DLD-1 tumors. As to the kind of experiment: Low dose HTI-286 and L-NNA on various xenografts (FIG. 10). To be noted: HTI-286 1 mg/kg without L-NNA; L-NNA 10 mg/kg without HTI-286. Format: in vivo, mice. From the text: FIG. 10A-10F Quantification of the effects of C. novyi-NT plus low doses of HTI-286 and L-NNA on various xenografts (HCT116, HuCC-T1, HT-29, SW480, B16, and DLD-1, respectively).
[…] […] The p-values are based on comparisons between L-NNA+HTI-286 and L-NNA+HTI-286+C. novyi-NT spores. The p-value is indicated only when the result was statistically significant.
All animal protocols were designed in accordance with the Guide for the Care and Use of Laboratory Animals (NIH Publication 86-23) and were approved by the Johns Hopkins University Institutional Animal Care and Use Committee. Six to eight week old mice were implanted subcutaneously on one flank with 3 to 6 million cancer cells. Establishment of tumors of 150 to 500 mm3 took 8 to 21 days, depending on the cell type. C. novyi-NT spores (300×106) and anti-microtubule agents were generally administered by a single intravenous injection through the tail vein in a total volume of 300 to 500 ul phosphate-buffered saline (PBS). Quantitative assessment of tumor growth was performed by measuring subcutaneous tumor grafts (major and minor axis) using electronic calipers. Tumor volume was calculated using the equation: length×width2×0.5. Progression free survival was defined as the length of time following treatment before any increase in tumor volume was observed. Mice were considered “cured” if no tumor was evident three months after treatment. […]

The subject of data set [3] is Glucose Transporter-1 (Glut-1). As to the kind of experiment: Immunohistochemistry for Glut-1 (hypoxia marker) in HCT116 xenografts. Format: in vivo, mice. To be noted: HTI-286 1.7 mg/kg or docetaxel 50 mg/kg iv, 6 hr after treatment. How it is done:
Mice were euthanized six hours after treatment. Tumors were sectioned and H & E stained. Adjacent sections were stained for Glut-1 expression, a marker for hypoxia. Cells positive for Glut-1 appear brown. Arrows indicate examples of hemorrhage.
Paraffin sections were deparaffinized, incubated with proteinase K (Invitrogen), heated at 95° C. for 20 min in citrate buffer (pH 6), and treated with peroxidase blocking reagent (Dako). Sections were incubated with a monoclonal antibody against Glucose Transporter-1 (Glut-1, Dako) followed by a biotin-conjugated secondary antibody (Pierce). A third layer consisting of HRP-conjugated anti-biotin (DAKO) was followed by diaminobenzidine (Sigma) staining. Sections were counterstained with eosin.
Two independent tests of this hypothesis were performed. First, we directly assessed hypoxia within tumors by staining with an antibody to Glucose Transporter-1 (Glut-1). Glut-1 has been extensively studied and shown to be specifically expressed only in hypoxic regions (Airley et al., 2001).

The subject of another data set is C. novyi-NT. As to the kind of experiment: Quantification of C. novyi-NT in tumors by real-time PCR. Format: in vivo, C. novyi-NT in mice bearing HCT116 xenografts. To be noted: versus spores without drug; HCT116 xenografts; SD printed +/−0.08 (HTI-286), +/−0.3 (docetaxel). How it is done: Mice bearing HCT116 xenografts were treated with C. novyi-NT spores with or without HTI-286 (1.7 mg/kg) as described above. Following euthanasia 24-48 hr later, tumors were harvested, weighed, minced, and Dounce-homogenized. Genomic DNA was isolated using the Qiagen Genomic DNA Buffer Set and Genomic-tip 100/G. 25 ng of DNA was used in a PCR using the conditions described in (Vogelstein and Kinzler, 1999) The following primers specific for the C. novyi-NT phospholipase C gene were used: 5′-[…] (SEQ ID NO:1) and 5′-[…] (SEQ ID NO:2). No detectable primer dimers formed and no nonspecific amplification of mouse or xenograft genomic DNA occurred with these primers and PCR conditions. Real-time PCR was performed using an iCycler, and threshold cycle numbers were calculated using the iCycler Optical system interface software (Bio-Rad Lab, Hercules, Calif.). Averages of the threshold cycle number (Ct) of triplicate measurements per tumor were obtained, and three different tumors were studied for each treatment group. The results were expressed as the difference between the Ct of the treated tumor and the Ct of untreated controls, normalized to tumor weight.
Second, we directly tested the size of bacterial populations within tumors by measuring the number of bacteria at various times following intravenous injection of C. novyi-NT spores into mice bearing HCT116 xenografts. […]

The nature of data set [4]: Mortality following COBALT. Format: in vivo, nude mice. Conditions: deaths within one week, pooled xenograft models.
Text: as §1
(§2) This toxicity was observed only when the combination of C. novyi-NT spores and the drugs was administered and not with either the bacteria or the drugs alone. […] Though major tumor regressions were common, few mice died as a result of therapy (Table 2) No deaths occurred after treatment with the microtubule stabilizers plus C. novyi-NT, while 4% to 8% of mice treated with microtubule destabilizers plus C. novyi-NT died. The only other toxicity observed was transient weight loss (Table 3). Mice treated with the drugs alone lost ˜5 to 10% of their body weight within 7 days, while weight loss after treatment with C. novyi-NT plus these drugs varied from 8% to 18%. All weights recovered to pre-treatment levels within two weeks.

Another data set can be described thus: Weight loss after COBALT. In kind it is in vivo, nude mice. To be noted: drug dose 50.0 mg/kg; maximum average weight loss relative to weight one day prior to treatment; HCT116 xenografts.
Text: as §1, §2

For data set [5], the system named is tumor blood flow in HCT116 xenografts. Put plainly: Assessment of blood perfusion (Hoechst 33342) in HCT116 xenografts. Format: in vivo, mice. Conditions: HTI-286 1.7 mg/kg or docetaxel 50 mg/kg iv, 3 and 24 hr after treatment. As to the method: Three or 24 hours after treatment, mice were intravenously injected with Hoechst 33342 (40 mg/kg) and euthanized two minutes later. Tumors were cryosectioned and viewed by fluorescence microscopy after counter-staining with acridine orange (AO). Endothelial cells are stained blue when they have taken up the Hoechst 33342 dye. Adjacent sections were stained with MECA-32 monoclonal antibody, a vascular endothelium-specific marker. Arrows point towards normal blood vessels unaffected by HTI-286 treatment in overlying skin.
Mice bearing HCT116 xenografts of 300 to 500 mm3 were injected intravenously with anti-microtubule agents. At various times thereafter, they were intravenously injected with Hoechst 33342 (40 mg/kg), then euthanized two minutes later by CO2 narcosis. Tumors were fixed in Tissue-Tek OTC compound (Sakura Finetek, Torrance, Calif.) and stored at −80° C. Frozen sections 10 microns in thickness were prepared with a Leica Microsystems cryostat and counterstained with acridine orange, 7.5 ug/ml, in PBS for 5 minutes. […] At least three sections of each of three tumors, representing middle and distal parts of the tumor, were examined under fluorescence microscopy for each agent tested, and representative results are illustrated in the figures. […]

`NC(=NCCC[C@H](N)C(=O)O)N[N+](=O)[O-]` [L-NNA]: in data set [1], the “effect of L-NNA added to C. novyi-NT alone or high doses of HTI-286 plus C. novyi-NT” value is reported as “added little”. Further, the “effect of L-NNA on responses to low doses of HTI-286” value in data set [1] (L-NNA 10 mg/kg) is given as “significantly enhanced”. Further, the “effects on tumor growth when administered without the other agent” value in data set [2] was “no significant effects on tumor growth”.

`CC(=O)O[C@@]12CO[C@@H]1C[C@H](O)[C@@]1(C)C(=O)[C@H](O)C3=C(C)[C@@H](OC(=O)[C@H](O)[C@@H](NC(=O)OC(C)(C)C)c4ccccc4)C[C@@](O)([C@@H](OC(=O)c4ccccc4)[C@H]21)C3(C)C` [docetaxel]: the “Glut-1 expression (hypoxia marker) in tumors” value in data set [3] is “No increase”. In the data set on C. novyi-NT, the “increase in number of C. novyi-NT bacteria in tumor when co-injected with drug” value is on record as 1.6 fold. The “# dead (treatment-related deaths)” value in data set [4] (drug dose 25.0 mg/kg), in data set [4] (drug dose 50.0 mg/kg) and in data set [4] (drug dose 75.0 mg/kg) was 0 in each case. Moreover, the “Effect with C. novyi-NT” value in data set [1] (12.5 mg/kg × 1 (iv) with 3×108 C. novyi-NT spores iv) was “++ (10% to 50% shrinkage in tumor volume relative to pre-treatment size)”; in data set [1] (25 mg/kg × 1 (iv) with 3×108 C. novyi-NT spores iv), “+++ (>50% shrinkage in tumor volume relative to pre-treatment size)”; in data set [1] (50 mg/kg × 1 (iv) with 3×108 C. novyi-NT spores iv) it was “++++ (>20% cures)”; in data set [1] (75 mg/kg × 1 (iv) with 3×108 C. novyi-NT spores iv), “++++ (>20% cures)”. Besides, the Effect alone entry in data set [1] (12.5 mg/kg × 1 (iv)) is “+”; in data set [1] (25 mg/kg × 1 (iv)), “++ (10% to 50% shrinkage in tumor volume relative to pre-treatment size)”; in data set [1] (50 mg/kg × 1 (iv)), “++++ (>20% cures)”; in data set [1] (75 mg/kg × 1 (iv)) it was “+++ (>50% shrinkage in tumor volume relative to pre-treatment size)”. For the same compound, the “Weight Loss (%)” value in “Weight loss after COBALT” was found to be 11.0%. Further, the “blood flow to the tumors (Hoechst 33342 labelling)” value in data set [5] is “no observable effects”.
